From patent US20070142363A1, “Novel diazabicyclonene derivatives and use thereof” (ACTELION PHARMACEUTICALS LTD, priority 2003, published 2007)

Target: T1, human recombinant renin (Homo sapiens, UniProt P00797)
T1 sequence (P00797 67-406): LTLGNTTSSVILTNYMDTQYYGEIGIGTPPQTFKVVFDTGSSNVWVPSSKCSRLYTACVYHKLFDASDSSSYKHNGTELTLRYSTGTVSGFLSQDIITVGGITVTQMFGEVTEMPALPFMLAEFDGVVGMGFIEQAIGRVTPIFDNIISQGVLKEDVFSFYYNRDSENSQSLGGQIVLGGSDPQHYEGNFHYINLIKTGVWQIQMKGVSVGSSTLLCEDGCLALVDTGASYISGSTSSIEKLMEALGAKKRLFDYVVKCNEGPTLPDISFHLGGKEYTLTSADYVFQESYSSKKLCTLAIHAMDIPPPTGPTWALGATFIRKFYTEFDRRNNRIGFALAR
Assay: Inhibition of human recombinant renin (enzymatic in vitro assay, Ang I detected by EIA)
Type: biochemical
Settings: human recombinant renin 0.16 ng/mL, synthetic human angiotensin(1-14) 0.5 μM, 37° C. for 3 h
Procedure: Inhibition of Human Recombinant Renin by the Compounds of the Invention The enzymatic in vitro assay was performed in 384-well polypropylene plates (Nunc). The assay buffer consisted of 10 mM PBS (Gibco BRL) including 1 mM EDTA and 0.1% BSA. The incubates were composed of 50 μL per well of an enzyme mix and 2.5 μL of renin inhibitors in DMSO. The enzyme mix was premixed at 4° C. and consists of the following components: • human recombinant renin (0.16 ng/mL) * synthetic human angiotensin(1-14) (0.5 μM) • hydroxyquinoline sulfate (1 mM) The mixtures were then incubated at 37° C. for 3 h. To determine the enzymatic activity and its inhibition, the accumulated Ang I was detected by an enzyme immunoassay (EIA) in 384-well plates (Nunc). 5 μL of the incubates or standards were transferred to immuno plates which were previously coated with a covalent complex of Ang I and bovine serum albumin (Ang I—BSA). 75 μL of Ang I-antibodies in essaybuffer above including 0.01% Tween 20 were added and a primary incubation made at 4° C. overnight. The plates were washed 3 times with PBS including 0.01% Tween 20, and then incubated for 2 h at rt with an antirabbit-peroxidase coupled antibody (WA 934, Amersham).

IC50	Compound
1430 pM	Cc1cc(Cl)c(OCCOc2ccc(C3=C(C(=O)N(Cc4ccnc(OCCO)c4C)C4CC4)[C@H]4CNC[C@@H](C3)N4)cc2)c(Cl)c1 (racemic) [Example 4, (rac.)-(1R*, 5S*)-7-{4-[2-(2,6-Dichloro-4-methylphenoxy)ethoxy]phenyl}-3,9-diazabicyclo[3.3.1]non-6-ene-6-carboxylic Acid Cyclopropyl-[2-(2-hydroxy-ethoxy)-3-methylpyridin-4-ylmethyl]amide]
1160 pM	Cc1c(CN(C(=O)C2=C(c3ccc(CCCOc4c(F)ccc(F)c4Cl)cc3)C[C@@H]3CNC[C@H]2N3)C2CC2)ccnc1OCCCO (racemic) [Example 1, (rac.)-(1R*, 5S*)-7-{4-[3-(2-Chloro-3,6-difluorophenoxy)propyl]phenyl}-3,9-diazabicyclo[3.3.1]non-6-ene-6-carboxylic Acid Cyclopropyl-[2-(3-hydroxy-propoxy)-3-methylpyridin-4-ylmethyl]amide]
490 pM	Cc1cc(Cl)c(OCCOc2ccc(C3=C(C(=O)N(Cc4ccnc(OCCCO)c4C)C4CC4)[C@H]4CNC[C@@H](C3)N4)cc2)c(Cl)c1 (racemic) [Example 2, (rac.)-(1R*, 5S*)-7-{4-[2-(2,6-Dichloro-4-methylphenoxy)ethoxy]phenyl}-3,9-diazabicyclo[3.3.1]non-6-ene-6-carboxylic Acid Cyclopropyl-[2-(3-hydroxy-propoxy)-3-methylpyridin-4-ylmethyl]amide]
820 pM	Cc1c(CN(C(=O)C2=C(c3ccc(CCCOc4c(F)ccc(F)c4Cl)cc3)C[C@@H]3CNC[C@H]2N3)C2CC2)ccnc1OCCO (racemic) [Example 3, (rac.)-(1R*, 5S*)-7-{4-[3-(2-Chloro-3,6-difluorophenoxy)propyl]phenyl}-3,9-diazabicyclo[3.3.1]non-6-ene-6-carboxylic Acid Cyclopropyl-[2-(2-hydroxy-ethoxy)-3-methylpyridin-4-ylmethyl]amide]
